In patent publication EP3046573B1, “AMYLIN ANALOGUES” (Zealand Pharma A/S, priority 2013, dated 2015):
Numbered stars: 1 amine (or outer) side, 2 acyl side, 3 side chain; on linkers, the order of the positions; unused ones are H or OH. Bridge positions count the residues as written; N and C are the ends. Square brackets hold non-standard residues; d marks the D form. Peptide text beside a SMILES is read from it. * marks the point of attachment. C20 diacid = O=C(O)CCCCCCCCCCCCCCCCCCC(=O)*; γGlu = O=C(O)[C@H](CCC(=O)[*:2])N[*:1]; NMeI = CC[C@H](C)[C@H](NC)C(=O)O; Sar = CNCC(=O)O

Tests used:
[1] = target: T1, human calcitonin receptor (hCTR2) (Homo sapiens, UniProt P30988); test: hCTR2 assay: induction of cAMP (AlphaScreen cAMP Assay kit) in COS7 cells expressing hCTR2; type: cell-based; details: cAMP induction in COS7 cells expressing hCTR2; average of a minimum of 3 determinations; read-out: hCTR2 EC50
T1 construct: expressed in transfected cells
T1 sequence (P30988 25-474): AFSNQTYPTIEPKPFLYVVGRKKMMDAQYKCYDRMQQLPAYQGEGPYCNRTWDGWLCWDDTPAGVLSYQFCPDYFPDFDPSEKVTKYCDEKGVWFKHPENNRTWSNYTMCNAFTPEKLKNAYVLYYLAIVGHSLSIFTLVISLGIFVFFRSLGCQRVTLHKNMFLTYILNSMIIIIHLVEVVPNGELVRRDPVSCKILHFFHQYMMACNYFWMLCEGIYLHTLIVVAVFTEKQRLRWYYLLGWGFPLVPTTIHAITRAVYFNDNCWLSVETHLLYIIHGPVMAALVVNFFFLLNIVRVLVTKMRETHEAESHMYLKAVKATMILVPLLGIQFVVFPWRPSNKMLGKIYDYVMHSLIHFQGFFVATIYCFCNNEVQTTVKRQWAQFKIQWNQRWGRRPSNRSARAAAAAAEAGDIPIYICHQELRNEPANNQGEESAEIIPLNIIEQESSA
Outline: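 cAMP induction was measured by AlphaScreen in COS7 cells stably expressing hCTR2 without RAMPs, after 15 min at 37° C with increasing peptide concentrations, 100 µM IBMX and 0.1% casein (Tyrode, pH 7.4). A 4-parameter logistic fit gave EC50 and % efficacy versus pramlintide.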

[2] = target: T2, human amylin receptor 3 (hAMYR3) consisting of hCTR2 co-expressed with human Receptor Activity Modifying Protein 3 (hRAMP3) (Homo sapiens, UniProt O60896+P30988); test: hAMYR3 assay: induction of cAMP (AlphaScreen cAMP Assay kit) in COS7 cells expressing hAMYR3; type: cell-based
T2 construct: expressed in transfected cells
T2 sequence (P30988 25-474): T1 sequence (P30988 25-474)
T2 sequence (O60896 24-148 partner): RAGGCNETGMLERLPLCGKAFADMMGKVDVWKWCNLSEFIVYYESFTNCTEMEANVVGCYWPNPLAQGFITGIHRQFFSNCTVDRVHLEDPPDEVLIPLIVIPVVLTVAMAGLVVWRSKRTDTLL
Outline: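 cAMP accumulation read by AlphaScreen in lysates of RAMP-naive COS7 cells stably transfected with hCTR2 plus hRAMP3. Cells exposed to peptide dilutions for 15 min, 37° C, with 100 µM IBMX; 4PL fitting gave EC50 and efficacy relative to pramlintide.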

[3] = Solubility assessment (turbidity absorbance at 325 nm); type: physicochemical; details: stock 2 mg/ml diluted 1:1, ambient temperature (typically 25°C), n=1; for Solubility, Acetate buffer pH 4: 100 mM acetate buffer pH 4.0; for Solubility, Acetate buffer pH 5: 100 mM acetate buffer pH 5.0; for Solubility, Histidine buffer pH 6: 100 mM histidine buffer pH 6.0; for Solubility, Histidine buffer pH 7: 100 mM histidine buffer pH 7.0; for Solubility, Phosphate buffer pH 6: 100 mM phosphate buffer pH 6.0; for Solubility, Phosphate buffer pH 7: 100 mM phosphate buffer pH 7.0; for Solubility, Phosphate buffer pH 7.5: 100 mM phosphate buffer pH7.5
Outline: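 Read-out: turbidity as absorbance at 325 nm (280 nm also read), single samples, ambient temperature of typically 25°C. Samples were a 1:1 mix of 2 mg/ml stock (water, pH 2.5) with 100 mM acetate, histidine or phosphate buffers spanning pH 4.0–7.5. Cut-off: A325 ≤ 0.02 indicates ≥ 1 mg/ml.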

Row | Structure (SMILES) | EC50 [1] | EC50 [2] | Solubility, Acetate buffer pH 4 [3] | Solubility, Acetate buffer pH 5 [3] | Solubility, Histidine buffer pH 6 [3] | Solubility, Histidine buffer pH 7 [3] | Solubility, Phosphate buffer pH 6 [3] | Solubility, Phosphate buffer pH 7 [3] | Solubility, Phosphate buffer pH 7.5 [3]
1 | CC[C@H](C)[C@@H](C(=O)N[C@@H](CC(C)C)C(=O)N[C@@H](CO)C(=O)N[C@@H](CO)C(=O)N[C@H](C(=O)N[C@@H](CCC(=O)O)C(=O)N[C@H](C(=O)NCC(=O)N[C@@H](CO)C(=O)N[C@@H](CCC(=O)O)C(=O)N[C@H](C(=O)N1CCC[C@H]1C(N)=O)[C@@H](C)O)C(C)C)[C@@H](C)O)N(C)C(=O)[C@H](C)NC(=O)CN(C)C(=O)[C@H](Cc1ccccc1)NC(=O)[C@H](CO)NC(=O)[C@H](CO)NC(=O)[C@H](CO)NC(=O)[C@H](CO)NC(=O)[C@H](CCCNC(=N)N)NC(=O)[C@H](Cc1c[nH]cn1)NC(=O)[C@H](CC(C)C)NC(=O)[C@H](Cc1ccccc1)NC(=O)[C@H](CCC(=O)O)NC(=O)[C@H](C)NC(=O)[C@H](CC(C)C)NC(=O)[C@H](CCCNC(=N)N)NC(=O)[C@H](C)NC(=O)[C@@H](NC(=O)[C@H](C)NC(=O)[C@@H]1CSSC[C@H](NC(=O)[C@H](CCCNC(=N)N)NC(=O)CC[C@H](NC(=O)CCCCCCCCCCCCCCCCCCC(=O)O)C(=O)O)C(=O)N[C@@H](CC(=O)O)C(=O)N[C@@H]([C@@H](C)O)C(=O)N[C@@H](C)C(=O)N[C@@H]([C@@H](C)O)C(=O)N1)[C@@H](C)O [Compound 145, [19CD]-isoGlu-RC()DTATC()ATARLAEFLHRSSSSF-Gly(Me)-A-Ile(Me)-LSSTEVGSETP-NH2] ({C20 diacid-γGlu}-RCDTATCATARLAEFLHRSSSSF[Sar]A[NMeI]LSSTEVGSETP-NH2; disulfide 2-7) | 92 pM | 220 pM | SS (SS indicates solubility ≥ 1mg/ml) | SS (SS indicates solubility ≥ 1mg/ml) | SS (SS indicates solubility ≥ 1mg/ml) | SS (SS indicates solubility ≥ 1mg/ml) | SS (SS indicates solubility ≥ 1mg/ml) | SS (SS indicates solubility ≥ 1mg/ml) | SS (SS indicates solubility ≥ 1mg/ml)
2 | CC[C@H](C)[C@@H](C(=O)N[C@@H](CC(C)C)C(=O)N[C@@H](CO)C(=O)N[C@@H](CO)C(=O)N[C@H](C(=O)N[C@@H](CCC(=O)O)C(=O)N[C@H](C(=O)NCC(=O)N[C@@H](CO)C(=O)N[C@@H](CCC(=O)O)C(=O)N[C@H](C(=O)N1CCC[C@H]1C(N)=O)[C@@H](C)O)C(C)C)[C@@H](C)O)N(C)C(=O)[C@H](C)NC(=O)CN(C)C(=O)[C@H](Cc1ccccc1)NC(=O)[C@H](CO)NC(=O)[C@H](CO)NC(=O)[C@H](CO)NC(=O)[C@H](CO)NC(=O)[C@H](CCCNC(=N)N)NC(=O)[C@H](Cc1c[nH]cn1)NC(=O)[C@H](CC(C)C)NC(=O)[C@H](Cc1ccccc1)NC(=O)[C@H](CCC(=O)O)NC(=O)[C@H](C)NC(=O)[C@H](CC(C)C)NC(=O)[C@H](CCCNC(=N)N)NC(=O)[C@H](C)NC(=O)[C@@H](NC(=O)[C@H](C)NC(=O)[C@@H]1CSSC[C@H](NC(=O)[C@H](CCCNC(=N)N)NC(=O)CC[C@H](NC(=O)CCCCCCCCCCCCCCCCCCC(=O)O)C(=O)O)C(=O)N[C@@H](CCC(=O)O)C(=O)N[C@@H]([C@@H](C)O)C(=O)N[C@@H](C)C(=O)N[C@@H]([C@@H](C)O)C(=O)N1)[C@@H](C)O [Compound 146, [19CD]-isoGlu-RC()ETATC()ATARLAEFLHRSSSSF-Gly(Me)-A-Ile(Me)-LSSTEVGSETP-NH2] ({C20 diacid-γGlu}-RCETATCATARLAEFLHRSSSSF[Sar]A[NMeI]LSSTEVGSETP-NH2; disulfide 2-7) | 92 pM | 150 pM | SS (SS indicates solubility ≥ 1mg/ml) | SS (SS indicates solubility ≥ 1mg/ml) | SS (SS indicates solubility ≥ 1mg/ml) | SS (SS indicates solubility ≥ 1mg/ml) | SS (SS indicates solubility ≥ 1mg/ml) | SS (SS indicates solubility ≥ 1mg/ml) | SS (SS indicates solubility ≥ 1mg/ml)
